Data from PMC10974995 (Pathogens, 2024).
Converted amounts (≈) assume the structure as drawn. Like-named read-outs stand apart in the source and are kept apart here.

Legend:
[1] = system: boar sperm
[2] = system: boar sperm; assay: cells
[3] = system: PK-15 (porcine kidney epithelial cells) and/or FFL (feline fetus lung cells); assay: cells; conditions: Sus scrofa
[4] = system: PK-15 (porcine kidney epithelial cells) and/or FFL (feline fetus lung cells)
[5] = system: Rat; conditions: po; cited from earlier work
[6] = system: differentiated PK-15 cells; assay: cells; conditions: Sus scrofa, PK-15, read-out: Mitochondrial Toxicity 1d (EC50, acceleration of glycolysis and depolarization of mitochondria)
[7] = system: differentiated PK-15 cells
[8] = system: Fish; conditions: cited from earlier work
[9] = 72 h, read-out: EC50 Ex Vivo BSMI 1–3d
[10] = PK-15, 48 h, read-out: EC50 In Vitro ICP 2d

Row | Compound | Ex Vivo BSMI 1–3d, toxic (+) / nontoxic (−), microbial metabolites ([1]; pig (boar)) | EC50 [2, 9] | EC50 [3, 10] | In Vitro ICP 2d, toxic (+) / nontoxic (−), microbial metabolites [4] | In Vivo (toxicity to experimental animals), mycotoxins and fungal metabolites [5] | Toxicity In Vivo LD50 Rat p.o. [5] | EC50 Ex Vivo BSMI 1–3d [1] | EC50 In Vitro ICP 2d [4] | further results
1 | CC1(C)C=Cc2c(ccc3c2[N+]([O-])=C2C3=C[C@@]34NC(=O)[C@]5(CCCN5C3=O)C[C@H]4C2(C)C)O1 [Avrainvillamide] | (+) 0.2 (key: (+): For the microbial metabolites, EC50 < 5 µg mL^−1 and <10 µg mL^−1 were considered as toxic in the BSMI and ICP assays, respectively; nontoxic as (−)) | 0.2 µg/mL (≈ 0.449 µM) | 0.2 µg/mL (≈ 0.449 µM) | (+) 0.2 (key: (+): For the microbial metabolites, EC50 < 5 µg mL^−1 and <10 µg mL^−1 were considered as toxic in the BSMI and ICP assays, respectively; nontoxic as (−)) |  |  |  |  | 
2 | C/C1=C\[C@@H](C)C/C=C/[C@H]2[C@@H]3O[C@]3(C)[C@@H](C)[C@H]3[C@H](Cc4c[nH]c5ccccc45)NC(=O)[C@]32C(=O)/C=C/C(=O)[C@@H]1O [Chaetoglobosin A] | (+) <1 (key: (+): For the microbial metabolites, EC50 < 5 µg mL^−1 and <10 µg mL^−1 were considered as toxic in the BSMI and ICP assays, respectively; nontoxic as (−)) | < 1 µg/mL | 3 µg/mL (≈ 5.67 µM) | (+) 3 (key: (+): For the microbial metabolites, EC50 < 5 µg mL^−1 and <10 µg mL^−1 were considered as toxic in the BSMI and ICP assays, respectively; nontoxic as (−)) | + (key: LD50 rat p.o. <1000 mg kg ^–1 Classified as Toxic in vivo +.) | >400 mg/kg |  |  | 
3 | CC1=C2C(=CO[C@H](C)[C@H]2C)C(O)=C(C(=O)O)C1=O [Citrinin] | (−) 20 | 20 µg/mL (≈ 79.9 µM) | 10 µg/mL (≈ 40 µM) | (+) 10 (key: (+): For the microbial metabolites, EC50 < 5 µg mL^−1 and <10 µg mL^−1 were considered as toxic in the BSMI and ICP assays, respectively; nontoxic as (−)) | + (key: LD50 rat p.o. <1000 mg kg ^–1 Classified as Toxic in vivo +.) | 105 mg/kg |  |  | EC50 ([2]; read-out: EC50 Ex Vivo BSMI, positive controls, mean of 10 or 11 measurements): ≥ 20 µg/mL; EC50 ([3]; PK-15, read-out: EC50 In Vitro ICP, positive controls, mean of 10 or 11 measurements): 13 µg/mL (≈ 51.9 µM)
4 | Cc1cc(O)c2c(c1)C(=O)c1cc(O)cc(O)c1C2=O [Emodin] | (+) 4 (key: (+): For the microbial metabolites, EC50 < 5 µg mL^−1 and <10 µg mL^−1 were considered as toxic in the BSMI and ICP assays, respectively; nontoxic as (−)) | 4 µg/mL (≈ 14.8 µM) | 45 µg/mL (≈ 167 µM) | (−) 45 |  | 1000 mg/kg |  |  | EC50 [6]: 3 µg/mL (≈ 11.1 µM)
5 | O=c1cc(O)c1=O [Moniliformin] |  |  |  | (−) >20 | + (key: LD50 rat p.o. <1000 mg kg ^–1 Classified as Toxic in vivo +.) | 50 mg/kg | (+) 2 μg mL^–1 | (−) >20 μg mL^–1 | Ex Vivo BSMI 1–3d, toxic (+) / nontoxic (−), microbial metabolites [1]: (+) 2 (key: (+): For the microbial metabolites, EC50 < 5 µg mL^−1 and <10 µg mL^−1 were considered as toxic in the BSMI and ICP assays, respectively; nontoxic as (−)); Mitochondrial Toxicity 1d (EC50, acceleration of glycolysis and depolarization of mitochondria) [7]: (+) 2 μg mL^–1
6 | CC(C)=C[C@H]1C[C@H](C)[C@]2(CC[C@]3(C)C[C@H]4[C@H](C(=O)C[C@@]4(C)O)/C(C=O)=C\C[C@H]32)O1 [Ophiobolin, Ophiobolin A] | (+) 0.3 (key: (+): For the microbial metabolites, EC50 < 5 µg mL^−1 and <10 µg mL^−1 were considered as toxic in the BSMI and ICP assays, respectively; nontoxic as (−)) | 0.3 µg/mL (≈ 0.749 µM) | 0.1 µg/mL (≈ 0.25 µM) | (+) 0.1 (key: (+): For the microbial metabolites, EC50 < 5 µg mL^−1 and <10 µg mL^−1 were considered as toxic in the BSMI and ICP assays, respectively; nontoxic as (−)) | + (key: LD50 rat p.o. <1000 mg kg ^–1 Classified as Toxic in vivo +.) | 238 mg/kg |  |  | 
7 | CCCCCCCCCCCCOS(=O)(=O)[O-].[Na+] [SDS, Sodium dodecyl sulfate] |  |  |  |  |  | 1288 mg/kg | (+) 10 μg mL^–1 | (−) 120 μg mL^–1 | Ex Vivo BSMI 1–3d, toxic (+) / nontoxic (−), xenobiotic chemicals [1]: (+) 10 (key: (+): For the xenobiotic chemicals, EC50 values < 10 µg mL^−1 and <20 µg mL^−1 were considered as toxic in the BSMI assay and in the ICP assay, respectively; nontoxic as (−)); In Vitro ICP 2d, toxic (+) / nontoxic (−), xenobiotic chemicals [4]: (−) 120; In Vivo (toxicity to experimental animals), xenobiotic chemicals [8]: + (key: LD50 Fish Inhaled <10 μg mL ^–1 = Toxic in vivo Marked as +.); Toxicity In Vivo LD50 Fish [8]: 30 mg/L
8 | CC1(C)C=Cc2c(ccc3c2[N+]([O-])=C2C(C)(C)[C@@H]4CC56CCCN5C(=O)[C@]4(NC6=O)[C@H]4N5C(=O)[C@@]67CCCN6C(=O)[C@@]56[C@H](c5c(n(O)c8c9c(ccc58)OC(C)(C)C=C9)C(C)(C)[C@@H]6C7)[C@]234)O1 [Stephacidin B] |  |  |  |  |  |  | (+) 0.3 μg mL^–1 | (++) 0.3 μg mL^–1 | Ex Vivo BSMI 1–3d, toxic (+) / nontoxic (−), microbial metabolites [1]: (+) 0.3 (key: (+): For the microbial metabolites, EC50 < 5 µg mL^−1 and <10 µg mL^−1 were considered as toxic in the BSMI and ICP assays, respectively; nontoxic as (−))
9 | COc1cc2c(c3oc4cccc(O)c4c(=O)c13)[C@@H]1C=CO[C@@H]1O2 [Sterigmatocystin] | (−)>20 |  |  | (+) 0.1 (key: (+): For the microbial metabolites, EC50 < 5 µg mL^−1 and <10 µg mL^−1 were considered as toxic in the BSMI and ICP assays, respectively; nontoxic as (−)) | + (key: LD50 rat p.o. <1000 mg kg ^–1 Classified as Toxic in vivo +.) |  | (−)>20 μg mL^–1 | (+) 0.1 μg mL^–1 | 
10 | CC(C)[C@@H]1NC(=O)[C@H](C)OC(=O)[C@@H](C(C)C)NC(=O)[C@@H](C(C)C)OC(=O)[C@H](C(C)C)NC(=O)[C@H](C)OC(=O)[C@@H](C(C)C)NC(=O)[C@@H](C(C)C)OC(=O)[C@H](C(C)C)NC(=O)[C@H](C)OC(=O)[C@@H](C(C)C)NC(=O)[C@@H](C(C)C)OC1=O [Valinomycin] |  |  |  |  |  | 4 mg/kg |  |  | 
11 | Acrebol |  |  |  | (−) >10 |  |  | (+) 0.1 μg mL^–1 | (−) >10 μg mL^–1 | Ex Vivo BSMI 1–3d, toxic (+) / nontoxic (−), microbial metabolites [1]: (+) 0.1 (key: (+): For the microbial metabolites, EC50 < 5 µg mL^−1 and <10 µg mL^−1 were considered as toxic in the BSMI and ICP assays, respectively; nontoxic as (−)); Mitochondrial Toxicity 1d (EC50, acceleration of glycolysis and depolarization of mitochondria) [7]: (+) 0.1 μg mL^–1
12 | Polyethylene glycol sorbitan mono oleate [Tween 80] |  |  |  |  |  | >25,000 mg kg^−1 | (+) 10 μg mL^–1 |  | Ex Vivo BSMI 1–3d, toxic (+) / nontoxic (−), xenobiotic chemicals [1]: (+) 10 (key: (+): For the xenobiotic chemicals, EC50 values < 10 µg mL^−1 and <20 µg mL^−1 were considered as toxic in the BSMI assay and in the ICP assay, respectively; nontoxic as (−)); Response in the BSMI assay [1]: weak positive response; In Vitro ICP 2d, toxic (+) / nontoxic (−), xenobiotic chemicals [4]: (−) 500; In Vivo (toxicity to experimental animals), xenobiotic chemicals [8]: −
13 | Polyethyleneglycol monalkyl ether [Genapol X 080] |  |  |  |  |  | >2000 mg/kg | (+) 3 μg mL^–1 | (−) 30 μg mL^–1 | Ex Vivo BSMI 1–3d, toxic (+) / nontoxic (−), xenobiotic chemicals [1]: (+) 3 (key: (+): For the xenobiotic chemicals, EC50 values < 10 µg mL^−1 and <20 µg mL^−1 were considered as toxic in the BSMI assay and in the ICP assay, respectively; nontoxic as (−)); In Vitro ICP 2d, toxic (+) / nontoxic (−), xenobiotic chemicals [4]: (−) 30; In Vivo (toxicity to experimental animals), xenobiotic chemicals [8]: + (key: LD50 Fish Inhaled <10 μg mL ^–1 = Toxic in vivo Marked as +.); Toxicity In Vivo LD50 Fish [8]: 5 mg/L; Mitochondrial Toxicity 1d (EC50, acceleration of glycolysis and depolarization of mitochondria) [7]: (+) 5 μg mL^–1; Mitochondrial toxicity after testing with somatic cells [7]: Mitochondrial toxicity was recorded
14 | Polyethyleneglycol-p-is-octylphenyl ether [Triton X –100] |  |  |  |  |  | 500 mg/kg | (+) 1 μg mL^–1 | (−) 30 μg mL^–1 | Ex Vivo BSMI 1–3d, toxic (+) / nontoxic (−), xenobiotic chemicals [1]: (+) 1 (key: (+): For the xenobiotic chemicals, EC50 values < 10 µg mL^−1 and <20 µg mL^−1 were considered as toxic in the BSMI assay and in the ICP assay, respectively; nontoxic as (−)); In Vitro ICP 2d, toxic (+) / nontoxic (−), xenobiotic chemicals [4]: (−) 30; In Vivo (toxicity to experimental animals), xenobiotic chemicals [8]: + (key: LD50 Fish Inhaled <10 μg mL ^–1 = Toxic in vivo Marked as +.); Toxicity In Vivo LD50 Fish [8]: 5 mg/L
